System: progranulin (PGRN) secretion, BV-2 cells
Experiment: PGRN assay: progranulin induction cellular assay (ELISA of secreted mouse PGRN)
Assay type: cell-based
Conditions: not given
Summary of the method: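 Progranulin induction measured in BV-2 cells plated at about 80% confluence the day before, given 1 h to attach, then incubated 16 h. Secreted mouse PGRN quantified by ELISA.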

Structure (SMILES)	EC50
O=C(O[C@H]1CN2CCC1(F)CC2)N1CCc2ccccc2[C@@H]1c1ccc(F)cc1 (single isomer, unassigned) [Compound 2127]	1860 nM

Same assay, conditions: Mus musculus, BV-2, PGRN assay, Table C; secreted mouse PGRN in cell culture medium, ELISA

Structure (SMILES)	EC50
C#CCOc1ccc2c(c1)CCN(C(=O)N[C@@H]1CN3CCC1CC3)[C@@H]2c1ccc(F)cc1 [Compound 2064]	> 10000 nM
Fc1ccc(C2c3ccccc3CCN2C(C[C@@H]2CN3CCC2CC3)C(F)(F)F)cc1 (single isomer, unassigned) [Compound 2132]	3070 nM
O=C(OCC12CCN(CC1)CC2)N1CCc2ccccc2[C@H]1c1cc(F)cc(F)c1 (single isomer, unassigned) [Compound 2141, quinuclidin-4-ylmethyl-1-(3,5-difluorophenyl)-3,4-dihydroisoquinoline-2(1H)-carboxylate]	> 10000 nM
CN1[C@H]2COC[C@H]1CC(OC(=O)N1CCc3ccccc3[C@@H]1c1ccc(F)cc1)C2 (single isomer, unassigned) [Compound 2099]	1880 nM
O=C([C@H](O)CC12CCN(CC1)CC2)N1CCc2ccccc2[C@@H]1c1ccc(F)cc1 (single isomer, unassigned) [Compound 2154]	353 nM
C#CCN1CCC(COC(=O)N2CCc3ccccc3[C@@H]2c2ccc(F)cc2)CC1 [Compound 2194, (1-(prop-2-yn-1-yl)piperidin-4-yl)methyl (S)-1-(4-fluorophenyl)-3,4-dihydroisoquinoline-2(1H)-carboxylate]	3200 nM
CN1CC2(CC[C@H]2OC(=O)N2CCc3ccccc3[C@@H]2c2ccc(F)cc2)C1 [Compound 2022]	960 nM

Same assay, conditions: Mus musculus, BV-2, PGRN assay, Table D; secreted mouse PGRN in cell culture medium, ELISA

Structure (SMILES)	EC50
CN(C(=O)N1CCc2ccccc2[C@@H]1c1ccc(F)cc1)[C@@H]1CCNC1 [Compound 2253, 1-(4-fluorophenyl)-N-methyl-((R)-pyrrolin-3-yl)-3,4-dihydroisoquinoline-2(1H)-carboxamide]	110 nM
O=C(O[C@H]1C[N@]2CC[C@H]1C2)N1CCc2ccccc2[C@@H]1c1ccc(F)cc1 [Compound 2204]	650 nM

Further lines, results first:

EC50	Structure (SMILES)
> 10000 nM	CN1C[C@@H](N(C)C(=O)N2CCc3ccccc3[C@@H]2c2ccc(F)cc2)C(F)(F)C1 [Compound 2298, (S)—N—((R)-4,4-difluoro-1-methylpyrrolidin-3-yl)-1-(4-fluorophenyl)-N-methyl-3,4-dihydroisoquinoline-2(1H)-carboxamide]
2840 nM	N[C@@H]1CCN(C(=O)N2CCc3ccccc3[C@H]2c2ccc(F)cc2)C1 [Compound 2286]
987 nM	CN(C)[C@@H]1CCN(C(=O)N2CCc3ccccc3[C@@H]2c2ccc(F)cc2)C1 [Compound 2312]
439 nM	O=C(N[C@H]1CNCCOC1)N1CCc2ccccc2[C@H]1c1ccc(F)cc1 (single isomer, unassigned) [Compound 2278]
2940 nM	CN(C)C[C@@H]1CCN(C(=O)N2CCc3ccccc3[C@@H]2c2ccc(F)cc2)C1 [Compound 2313, ((S)-3-((dimethylamino)methyl)pyrrolidin-1-yl)((S)-1-(4-fluorophenyl)-3,4-dihydroisoquinolin-2(1H)-yl)methanone]
365 nM	O=C(O[C@H]1CNC[C@@H]1F)N1CCc2ccccc2[C@@H]1c1ccc(F)cc1 [Compound 2361, (3S,4S)-4-fluoropyrrolidin-3-yl (S)-1-(4-fluorophenyl)-3,4-dihydroisoquinoline-2(1H)-carboxylate]

Same assay, conditions: mouse BV2 cells

Structure (SMILES)	secretion of progranulin
O=C(O[C@H]1CN2CCC1CC2)N1CCc2ccccc2[C@@H]1c1ccccc1 [Solifenacin, reference compound]	causes the secretion of progranulin
